# Measured values reported in paper PMC8061081 (Fitoterapia, 2021).
# Target: T1, SARS-CoV-2 3CL^pro (Severe acute respiratory syndrome coronavirus 2, UniProt P0DTD1)
# Assay: biochemical
# Conditions: not given
row,SMILES,IC50 [µM]
1,C[C@@H]1C(=O)O[C@H]2C[C@@]34[C@H]5C[C@@H](C(C)(C)C)[C@]36[C@@H](OC(=O)[C@@H]6O)O[C@@]4(C(=O)O5)[C@]21O [ginkgolide A],> 100
2,COc1cc(O)c2c(=O)cc(-c3ccc(O)cc3)oc2c1 [genkwanin],10.6 ± 1.89
3,C[C@@H]1O[C@@H](Oc2c(-c3ccc(O)c(O)c3)oc3cc(O)cc(O)c3c2=O)[C@H](O)[C@H](O)[C@H]1O [quercitrin],> 100
4,CC(C)(C)[C@]1(O)CC2OC(=O)CC23C(=O)OC2OC(=O)[C@H](O)C231 (some centres unmarked) [bilobalide],> 100
5,COc1ccc(-c2cc(=O)c3c(O)cc(O)c(-c4cc(-c5cc(=O)c6c(O)cc(O)cc6o5)ccc4OC)c3o2)cc1 [isoginkgetin],2.33 ± 0.46
6,O=c1c(O)c(-c2ccc(O)cc2)oc2cc(O)cc(O)c12 [kaempferol],> 100
7,COc1cc(-c2oc3cc(O)cc(O)c3c(=O)c2O)ccc1O [isorhamnetin],31.6 ± 16.6
8,COc1cc(O)c2c(=O)cc(-c3ccc(OC)c(-c4c(O)cc(O)c5c(=O)cc(-c6ccc(O)cc6)oc45)c3)oc2c1 [ginkgetin],2.98 ± 0.86
9,O=c1cc(-c2ccc(O)c(-c3c(O)cc(O)c4c(=O)cc(-c5ccc(O)cc5)oc34)c2)oc2cc(O)cc(O)c12 [amentoflavone],8.65 ± 3.72
10,COc1ccc(-c2cc(=O)c3c(O)cc(O)cc3o2)cc1-c1c(O)cc(O)c2c(=O)cc(-c3ccc(O)cc3)oc12 [bilobetin],11.2 ± 2.41

# Same assay, conditions: 3CLpro 4 μg/mL, preincubation 37 °C 40 min, substrate 20 μM, PBS pH 7.4
row,SMILES,IC50 [µM]
1,COc1ccc(-c2cc(=O)c3c(O)cc(O)c(-c4cc(-c5cc(=O)c6c(O)cc(OC)cc6o5)ccc4OC)c3o2)cc1 [sciadopitysin],1.09 ± 0.19

# Same assay, conditions: pH 7.4
row,SMILES,IC50 [µM]
1,CCCCCCCCCCCCCc1cccc(O)c1C(=O)O [GA C13:0],3.57 ± 0.9
2,CCCCCC/C=C\CCCCCCCc1cccc(O)c1C(=O)O [GA C15:1],3.45 ± 0.78
3,CCCCCC/C=C\CCCCCCCCCc1cccc(O)c1C(=O)O [GA C17:1],1.19 ± 0.15

# Target: T1, SARS-CoV-2 3CL^pro
# Assay: Inhibition kinetics, determination of inhibition constants
# Assay type: biochemical
# Conditions: inhibition kinetic plots and Lineweaver-Burk plots
row,SMILES,Inhibition mode
1,CCCCCCCCCCCCCCCc1cccc(O)c1C(=O)O [GA C15:0],reversible and mixed-inhibition
2,COc1ccc(-c2cc(=O)c3c(O)cc(O)c(-c4cc(-c5cc(=O)c6c(O)cc(OC)cc6o5)ccc4OC)c3o2)cc1 [sciadopitysin],reversible and mixed-inhibition
3,CCCCCC/C=C\CCCCCCCCCc1cccc(O)c1C(=O)O [GA C17:1],reversible and mixed-inhibition
